Data reported in patent US8546579B2, “Bicycloheteroaryl compounds as P2X7 modulators and uses thereof” (Evotec (US) Inc., priority 2006, dated 2013).

Biological target: T1, P2X7 receptor (Homo sapiens, UniProt Q99572)
T1 construct: host or cells: THP-1 cells differentiated with LPS and IFN-γ
T1 sequence (Q99572 1-595): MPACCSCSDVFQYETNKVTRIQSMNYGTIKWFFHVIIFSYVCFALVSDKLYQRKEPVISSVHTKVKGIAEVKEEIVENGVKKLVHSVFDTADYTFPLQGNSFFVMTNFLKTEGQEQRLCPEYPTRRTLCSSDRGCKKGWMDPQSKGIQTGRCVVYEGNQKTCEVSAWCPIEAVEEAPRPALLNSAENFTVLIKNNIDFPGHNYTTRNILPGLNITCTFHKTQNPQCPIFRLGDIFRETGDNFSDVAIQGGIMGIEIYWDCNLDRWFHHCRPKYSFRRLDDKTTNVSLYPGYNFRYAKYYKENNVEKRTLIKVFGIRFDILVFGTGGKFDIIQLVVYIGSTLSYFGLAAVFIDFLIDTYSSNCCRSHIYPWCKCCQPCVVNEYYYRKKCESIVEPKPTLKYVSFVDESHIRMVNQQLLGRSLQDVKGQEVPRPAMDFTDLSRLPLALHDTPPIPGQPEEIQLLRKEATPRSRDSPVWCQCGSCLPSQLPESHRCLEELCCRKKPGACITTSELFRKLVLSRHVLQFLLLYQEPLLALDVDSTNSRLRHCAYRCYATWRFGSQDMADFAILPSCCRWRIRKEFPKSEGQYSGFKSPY
Test: IL-1β release assay in differentiated THP-1 cells stimulated with BzATP (Example 9)
Type: cell-based
Settings: for inhibition at 0.3 µM: 0.3 μM compound, "+" class symbols, read-out: IL-1β % Inhib. @ 0.3 μM; for inhibition at 0.3 µM / inhibition at 0.1 µM: differentiated THP-1 cells, BzATP 250 uM; for IC50: THP-1 cells, BzATP-stimulated IL-1β release, four parameter logistic fit; for inhibition at 0.1 µM: 0.1 μM compound, "*" class symbols, read-out: IL-1β % Inhib. ("*" symbols: at 0.1 μM)
In short: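 IC50 derived by four-parameter logistic fit of percent inhibition of IL-1β release, measured by ELISA after 45 min stimulation with 250 uM BzATP. Cells: THP-1 differentiated 16 h with 100 ng/mL LPS plus IFN-γ, LPS-primed 2 h, compound added 30 min beforehand.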

Row | Structure (SMILES) | inhibition at 0.3 µM | IC50 | inhibition at 0.1 µM
1 | CC(c1ccccn1)n1ccc2c(NC(=O)[C@H](C)c3ccc(Cl)c(Cl)c3)cccc2c1=O (some centres unmarked) [Compound 1636] |  |  | 26 to 50%
2 | CC(c1ccccn1)n1ccc2c(NC(=O)Cc3ccc(Cl)c(F)c3)cccc2c1=O (centres unmarked) [Compound 1637] |  |  | 26 to 50%

Results, then the compound that gave them:

Row | inhibition at 0.3 µM | IC50 | inhibition at 0.1 µM | Structure (SMILES)
3 | ≥ 76% | 25.5 nM |  | CC(c1ccccn1)n1ccc2c(NC(=O)Cc3cccc(C(F)(F)F)c3F)cccc2c1=O (centres unmarked) [Compound 1633, 2-(2-Fluoro-3-trifluoromethyl-phenyl)-N-[1-oxo-2-(1-pyridin-2-yl-ethyl)-1,2-dihydro-isoquinolin-5-yl]-acetamide]
4 | 51 to 75% | 262 nM |  | CC(c1ccccn1)n1ccc2c(NC(=O)Cc3ccc(C(F)(F)F)cc3)cccc2c1=O (centres unmarked) [Compound 1634]
5 | ≥ 76% | 112 nM |  | CC(c1ccccn1)n1ccc2c(NC(=O)Cc3ccc(C(F)(F)F)c(F)c3)cccc2c1=O (centres unmarked) [Compound 1635]
